Experimental data published in US20110200655A1, “Systems and methods that kill infectious agents (bacteria) without the use of a systemic anti-biotic” (priority 2010, published 2011).

Columns and labels:
[1] = target: MMPs; details: compared with Ilomastat; cited from earlier work
[2] = test system: Staph. aureus; assay: Zone of inhibition of extract solutions on agar culture plate; type: cell-based, Staphylococcus aureus
Method: The extract solutions were tested for antimicrobial activity by placing single 20 microliter drops of the solutions at marked locations on an agar culture plate spread with ~3×10^3 CFU (continuous lawn) of E. coli bacteria. Plates were incubated overnight at 37° C., and the diameter of the “zone of inhibition”, or “ZOI” was measured. The size of this zone corresponds to the antibacterial activity of the extract solutions.
The samples were soaked in 25 mL of 5% PG solution for 2 hours, then squeezed to remove excess solution, dried and weighed. Samples were then washed with 25 mL of distilled water for one hour, then dried and weighed. These wash solutions (G-1 and H-1) were saved for analysis. The samples were then subjected to two additional washings with 25 mL distilled water, without drying in between washings (G-2, G-3, and H-2, H-3). Samples were then dried and weighed.
A repeat of the method of Example 15 was used, except that the extraction solvent used was phosphate buffered saline (“PBS”, pH=7.4, Fisher Scientific), and samples were not dried and weighed between extractions. Samples of a microbicidal utility substrate (Sample I, initial weight=1.024 g) and SofWick (Sample J, initial weight=1.011 g) were each soaked in 20 Ml of ~4% penicillin G solution overnight, and excess solution was removed by squeezing. Samples were then washed with 25 mL distilled water for one hour with agitation, squeezed to remove excess liquid, and then subjected to five sequential extractions using 25 mL of PBS for one hour at room temperature. Samples were squeezed to remove excess solution between extractions. Extracts were tested for antibacterial activity against S. aureus according to the procedure outlined above.
The method of Example 15 was used, except that sodium pyrithione (“SP”, Acros Chemical) was used instead of penicillin. One gram samples of the microbicidal utility substrate (sample K), and untreated SofWick (sample L) were each soaked overnight in 25 ml of 0.5% SP solution. Samples were removed and squeezed to remove excess liquid. Samples were then washed in 25 mL of distilled water for one hour with agitation, then squeezed to remove excess liquid. Each sample was subjected to four sequential extractions using 25 mL of distilled water for one hour at room temperature with agitation. Samples were squeezed to remove excess solution between extraction cycles. The extracts were tested for antibacterial activity against S. aureus using the procedure described above.

[3] = test system: microorganisms; details: tobramycin 2.5 mg/l, 15-400 µA/cm^2 during 8 h; cited from earlier work
[4] = test system: E. coli bacteria; assay: Zone of inhibition of extract solutions on agar culture plate; type: cell-based, Escherichia coli; details: 20 microliter drop
Method: In this example, a microbicidal utility substrate is made of a nonwoven rayon gauze material graft polymerized with diallyldimethylammonium chloride (DADAMC), and containing approximately 10 weight % poly(DADMAC)), and SofWick, a commercially available rayon gauze material manufactured by Johnson & Johnson were used as substrates. The material was prepared via modification of the SofWick substrate. Each substrate measured approximately 40 square inches. Substrates were dried at 60° C. for 30 minutes and then weighed. Both samples were trimmed to weigh exactly 1.00 grams each. A 0.5 weight % solution of Cefazolin Sodium USP (Geneva Pharmaceuticals) was prepared. Each sample was placed in a 50 mL screw-cap polypropylene centrifuge tube, along with 30 mL of the Cefazolin solution and the tubes were placed on a rotating agitator for 3 hours. The samples were removed from the solutions, then squeezed to remove excess solution, dried at 60° C. for 2 hours, then weighed. The sample weighed 1.05 grams, whereas the SofWick sample weighed 1.00 grams. […] The extraction liquid was saved for analysis.
The dried samples were placed in separate 50 mL centrifuge tubes containing 25 mL of distilled water, then placed in the rotating agitator overnight at room temperature. The samples were then removed, squeezed to remove excess solution, dried at 60° C. for 2 hours, then weighed. The sample weighed 1.03 grams, and the SofWick sample weighed 0.98 grams. […] The extraction liquid was saved for analysis This extraction procedure was repeated […] additional times to yield two series of six extraction liquids.
The extract solutions were tested for antimicrobial activity by placing single 20 microliter drops of the solutions at marked locations on an agar culture plate spread with ~3×10^3 CFU (continuous lawn) of E. coli bacteria. Plates were incubated overnight at 37° C., and the diameter of the “zone of inhibition”, or “ZOI” was measured. The size of this zone corresponds to the antibacterial activity of the extract solutions. […]

CNC(=O)C(Cc1c[nH]c2ccccc12)NC(=O)C(CC(=O)O)CC(C)C (centres unmarked) [GM1489]
Ki values for MMPs [1]: almost as good as Ilomastat

CC1(C)S[C@@H]2[C@H](NC(=O)Cc3ccccc3)C(=O)N2[C@H]1C(=O)[O-].[K+] [Penicillin G, Penicillin G Potassium]
ZOI diameter ([2]; Penicillin G 0.01% control solution): 0 mm | ZOI diameter ([2]; Penicillin G 0.1% control solution): 44 mm | ZOI diameter ([2]; Penicillin G 1.0% control solution): 56 mm

CC(C)C[C@H](CC(=O)NO)C(=O)N[C@@H](Cc1c[nH]c2ccccc12)C(=O)O [C-terminal carboxylic form of Ilomastat]
Ki values for MMPs [1]: lower

NC[C@H]1O[C@H](O[C@H]2[C@H](O)[C@@H](O[C@H]3O[C@H](CO)[C@@H](O)[C@H](N)[C@H]3O)[C@H](N)C[C@@H]2N)[C@H](N)C[C@@H]1O [tobramycin]
killing of microorganisms with current and antibiotic [3]: total killing of microorganisms

[Na+].[O-][n+]1ccccc1[S-] [SP, sodium pyrithione]
ZIO of SP control solution ([2]; 0.01% SP): 12 mm | ZIO of SP control solution ([2]; 0.1% SP): 26 am

Cc1nnc(SCC2=C(C(=O)O)N3C(=O)[C@@H](NC(=O)Cn4cnnn4)[C@H]3SC2)s1 [Cefazolin, Cefazolin Sodium USP]
ZOI diameter ([4]; Cefazolin 0.01% control solution): 0 mm | ZOI diameter ([4]; Cefazolin 0.1% control solution): 18 mm | ZOI diameter ([4]; Cefazolin 1% control solution): 40 mm
